Earlier results, collected in patent US4886800A, “Substituted cinnoline derivatives as CNS depressants” (ICI Americas Inc., priority 1985, dated 1989).

System: specific [3H]flunitrazepam binding, lysed mitochondrial-synaptosomal (P2) fraction of cerebral cortex
Conditions: reference behaviour stated in the description of the test

SMILES	effect on flunitrazepam binding
CCCCNc1c(C(=O)OCC)cnc2c1cnn2CC [cartazolate]	enchancement of the binding
CCCCNc1c(C(=O)OCC)c(C)nc2c1cnn2CC [tracazolate]	enchancement of the binding
